Source: patent US8192962B2, “Processes for detecting toxic substances” (Daikin Industries, Ltd., priority 2001, dated 2012)

System: Transport facilitation protein genes
Experiment: DNA chip mRNA expression in yeast, transport facilitation protein genes (Table 5)
Format: cell-based, Saccharomyces cerevisiae S288C
Method in brief: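 Ratios compare mRNA levels in stressed and control S. cerevisiae. Each toxicant was applied for two hours to log-phase cultures at 25° C. at a sub-lethal, growth-inhibiting level; fluorescent cDNA (Cy3- or Cy5-dUTP) was hybridized to a genome-wide yeast chip for over 12 h at 65° C.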

CCCCCCCCCCCCc1ccc(S(=O)(=O)[O-])cc1.[Na+] [(17), sodium dodecylbenzosulfonate]
The level of expressed mRNA in the presence of chemical substance/The level of expressed mRNA in the absence of chemical substance (yeast gene YGR224W): 2.8
The level of expressed mRNA in the presence of chemical substance/The level of expressed mRNA in the absence of chemical substance (yeast gene YGR260W): 0.9
The level of expressed mRNA in the presence of chemical substance/The level of expressed mRNA in the absence of chemical substance (yeast gene YGR281W): 2.8
The level of expressed mRNA in the presence of chemical substance/The level of expressed mRNA in the absence of chemical substance (yeast gene YHL035C): 1.1
The level of expressed mRNA in the presence of chemical substance/The level of expressed mRNA in the absence of chemical substance (yeast gene YHL040C): 1.4
The level of expressed mRNA in the presence of chemical substance/The level of expressed mRNA in the absence of chemical substance (yeast gene YHL047C): 1.2
The level of expressed mRNA in the presence of chemical substance/The level of expressed mRNA in the absence of chemical substance (yeast gene YHR026W): 0.9
The level of expressed mRNA in the presence of chemical substance/The level of expressed mRNA in the absence of chemical substance (yeast gene YHR092C): 0.9
The level of expressed mRNA in the presence of chemical substance/The level of expressed mRNA in the absence of chemical substance (yeast gene YHR094C): 1.4
The level of expressed mRNA in the presence of chemical substance/The level of expressed mRNA in the absence of chemical substance (yeast gene YHR175W): 1.3
The level of expressed mRNA in the presence of chemical substance/The level of expressed mRNA in the absence of chemical substance (yeast gene YIL006W): 0.8
The level of expressed mRNA in the presence of chemical substance/The level of expressed mRNA in the absence of chemical substance (yeast gene YIL022W): 0.8
The level of expressed mRNA in the presence of chemical substance/The level of expressed mRNA in the absence of chemical substance (yeast gene YIL056W): 1.5
The level of expressed mRNA in the presence of chemical substance/The level of expressed mRNA in the absence of chemical substance (yeast gene YIL088C): 1.2
The level of expressed mRNA in the presence of chemical substance/The level of expressed mRNA in the absence of chemical substance (yeast gene YJL034W): 1.1
The level of expressed mRNA in the presence of chemical substance/The level of expressed mRNA in the absence of chemical substance (yeast gene YJL212C): 0.6
The level of expressed mRNA in the presence of chemical substance/The level of expressed mRNA in the absence of chemical substance (yeast gene YJL219W): 1.6
The level of expressed mRNA in the presence of chemical substance/The level of expressed mRNA in the absence of chemical substance (yeast gene YJR077C): 1.0
The level of expressed mRNA in the presence of chemical substance/The level of expressed mRNA in the absence of chemical substance (yeast gene YJR106W): 1.2
The level of expressed mRNA in the presence of chemical substance/The level of expressed mRNA in the absence of chemical substance (yeast gene YJR121W): 1.1
The level of expressed mRNA in the presence of chemical substance/The level of expressed mRNA in the absence of chemical substance (yeast gene YKL016C): 1.0
The level of expressed mRNA in the presence of chemical substance/The level of expressed mRNA in the absence of chemical substance (yeast gene YKL146W): 1.0
The level of expressed mRNA in the presence of chemical substance/The level of expressed mRNA in the absence of chemical substance (yeast gene YKR039W): 0.9
The level of expressed mRNA in the presence of chemical substance/The level of expressed mRNA in the absence of chemical substance (yeast gene YKR067W): 0.8
The level of expressed mRNA in the presence of chemical substance/The level of expressed mRNA in the absence of chemical substance (yeast gene YLL028W): 1.2
The level of expressed mRNA in the presence of chemical substance/The level of expressed mRNA in the absence of chemical substance (yeast gene YLR081W): 0.7
The level of expressed mRNA in the presence of chemical substance/The level of expressed mRNA in the absence of chemical substance (yeast gene YLR295C): 0.9
The level of expressed mRNA in the presence of chemical substance/The level of expressed mRNA in the absence of chemical substance (yeast gene YLR348C): 1.1
The level of expressed mRNA in the presence of chemical substance/The level of expressed mRNA in the absence of chemical substance (yeast gene YLR378C): 0.9
The level of expressed mRNA in the presence of chemical substance/The level of expressed mRNA in the absence of chemical substance (yeast gene YMR011W): 1.3
The level of expressed mRNA in the presence of chemical substance/The level of expressed mRNA in the absence of chemical substance (yeast gene YMR162C): 0.8
The level of expressed mRNA in the presence of chemical substance/The level of expressed mRNA in the absence of chemical substance (yeast gene YMR203W): 0.8
The level of expressed mRNA in the presence of chemical substance/The level of expressed mRNA in the absence of chemical substance (yeast gene YNL055C): 1.2
The level of expressed mRNA in the presence of chemical substance/The level of expressed mRNA in the absence of chemical substance (yeast gene YNL259C): 2.6
The level of expressed mRNA in the presence of chemical substance/The level of expressed mRNA in the absence of chemical substance (yeast gene YNR072W): 1.3
The level of expressed mRNA in the presence of chemical substance/The level of expressed mRNA in the absence of chemical substance (yeast gene YOL119C): 1.4
The level of expressed mRNA in the presence of chemical substance/The level of expressed mRNA in the absence of chemical substance (yeast gene YOL156W): 0.9
The level of expressed mRNA in the presence of chemical substance/The level of expressed mRNA in the absence of chemical substance (yeast gene YOL163W): 0.8
The level of expressed mRNA in the presence of chemical substance/The level of expressed mRNA in the absence of chemical substance (yeast gene YOR035C): 1.6
The level of expressed mRNA in the presence of chemical substance/The level of expressed mRNA in the absence of chemical substance (yeast gene YOR130C): 1.5
The level of expressed mRNA in the presence of chemical substance/The level of expressed mRNA in the absence of chemical substance (yeast gene YOR153W): 2.5
The level of expressed mRNA in the presence of chemical substance/The level of expressed mRNA in the absence of chemical substance (yeast gene YOR273C): 3.2
The level of expressed mRNA in the presence of chemical substance/The level of expressed mRNA in the absence of chemical substance (yeast gene YOR316C): 0.8
The level of expressed mRNA in the presence of chemical substance/The level of expressed mRNA in the absence of chemical substance (yeast gene YOR332W): 1.3
The level of expressed mRNA in the presence of chemical substance/The level of expressed mRNA in the absence of chemical substance (yeast gene YOR348C): 0.9
The level of expressed mRNA in the presence of chemical substance/The level of expressed mRNA in the absence of chemical substance (yeast gene YPL036W): 0.4
The level of expressed mRNA in the presence of chemical substance/The level of expressed mRNA in the absence of chemical substance (yeast gene YPL134C): 1.3
The level of expressed mRNA in the presence of chemical substance/The level of expressed mRNA in the absence of chemical substance (yeast gene YPL271W): 1.2
The level of expressed mRNA in the presence of chemical substance/The level of expressed mRNA in the absence of chemical substance (yeast gene YPR192W): 1.6
The level of expressed mRNA in the presence of chemical substance/The level of expressed mRNA in the absence of chemical substance (yeast gene YPR194C): 1.0
